Earlier results on 2 compounds are cited in US8021659B2, “Coenzyme Q10, lactoferrin and angiogenin compositions and uses thereof” (Naidu LP, priority 2006, dated 2011).

Where two headings read alike, the source gives them in different places. Where only a bound is given, the exact number is not on record here.

For data set [1] the following is noted: human plasma.

As to “AGN: 14-kDa, basic heparin-binding protein and a member of the pancreatic ribonuclease superfamily”, in data set [1], the “half-life (turnover rate)” value is given as below 5 min.

On to `COC1=C(OC)C(=O)C(C/C=C(\C)CC/C=C(\C)CC/C=C(\C)CC/C=C(\C)CC/C=C(\C)CC/C=C(\C)CC/C=C(\C)CC/C=C(\C)CC/C=C(\C)CCC=C(C)C)=C(C)C1=O` [CoQ-10, 2,3-dimethoxy-5-methyl-6-decaprenyl-1,4-benzoquinone], for which the elimination half-life result (excretion primarily through the biliary tract) is listed as “approximately 34 hours”. For the same compound, where the note is “following oral administration”, the “time to peak levels of CoQ-10 in the plasma” value is 5 to 10 h. Besides, the “orally administered CoQ-10 excreted in the feces” value (oral administration) is “more than 60%”. Also, the serum concentrations was 0.7 to 1.0 µg/mL (regular doses of 30-60 mg/day) and 2.0 to 3.0 µg/mL (therapeutic doses of 100-200 mg/day).
